Measured values from patent US5736356A, “Transglutaminase originating from Crassostrea gigas” (Ajinomoto Co., Inc., priority 1994, dated 1998).
“Also recorded” adds a separate entry of the source. Like-named read-outs stand apart in the source and are kept apart here. Residues, ends and D or L forms follow the SMILES beside them. No end group written: not given here. *: point of attachment. Cbz = O=C(OCc1ccccc1)*

Columns and labels:
Assay type in all cases: biochemical
[1] = target: T1, purified transglutaminase originating from Crassostrea gigas (Magallana gigas, UniProt A0A8W8K4D7); details: synthetic substrate and hydroxylamine
T1 construct: Met-less mature form starts […]; recombinant enzyme from E. coli or yeast reported equivalent
T1 sequence (A0A8W8K4D7 entry or part of it with the stated changes): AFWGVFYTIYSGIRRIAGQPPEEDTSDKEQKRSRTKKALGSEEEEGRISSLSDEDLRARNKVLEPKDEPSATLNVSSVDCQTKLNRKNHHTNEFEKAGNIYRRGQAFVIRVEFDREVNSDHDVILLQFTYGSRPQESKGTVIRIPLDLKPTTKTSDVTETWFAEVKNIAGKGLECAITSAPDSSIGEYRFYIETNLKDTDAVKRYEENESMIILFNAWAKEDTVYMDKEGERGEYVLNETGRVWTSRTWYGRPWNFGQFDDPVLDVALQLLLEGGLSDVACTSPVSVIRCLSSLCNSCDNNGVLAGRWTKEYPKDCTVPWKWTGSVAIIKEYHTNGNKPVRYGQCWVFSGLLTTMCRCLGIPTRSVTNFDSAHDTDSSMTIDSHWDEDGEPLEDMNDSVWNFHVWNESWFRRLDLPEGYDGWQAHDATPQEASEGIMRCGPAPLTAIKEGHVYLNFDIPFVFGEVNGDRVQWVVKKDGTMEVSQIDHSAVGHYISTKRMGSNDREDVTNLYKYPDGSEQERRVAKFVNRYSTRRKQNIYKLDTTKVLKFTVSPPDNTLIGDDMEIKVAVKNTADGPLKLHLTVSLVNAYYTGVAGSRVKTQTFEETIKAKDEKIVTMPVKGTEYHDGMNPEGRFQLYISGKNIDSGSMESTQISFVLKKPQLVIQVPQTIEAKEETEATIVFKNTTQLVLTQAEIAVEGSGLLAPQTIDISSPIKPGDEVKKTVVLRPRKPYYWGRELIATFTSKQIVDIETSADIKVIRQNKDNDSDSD
Description: The inventors have investigated the enzyme activity of the purified transglutaminase using a variety of synthetic substrates and hydroxylamine.

[2] = target: T1, purified transglutaminase originating from Crassostrea gigas; details: final concentration 1 mM; for Residual Activity: treated at 25° C. for 10 minutes, reaction 37° C. 30 minutes
Experimental: The activity of the transglutaminase is determined by reacting the enzyme with dimethylated casein and monodansylcadaverine as substrates and measuring an increase in the fluorescent intensity of casein due to the incorporation of monodansylcadaverine into the dimethylated casein. The composition of the reaction solution is as follows:
To 2.4 ml of the foregoing reaction solution, there is added 20 to 50 μl of the transglutaminase solution followed by carrying out the reaction at 37° C. for 30 min, terminating the reaction by addition of 100 μl of a 500 mM EDTA solution and then determining the fluorescent intensity of the reaction solution (using a device: RF-1500 available from Shimadzu Corporation; excitation wavelength: 350 nm; wavelength of emitted fluorescent rays: 480 nm). In respect of the unit of the activity, that required for increasing the fluorescent intensity by 1.0 within one minute is herein defined to be one unit.
The purified transglutaminase was treated at a temperature of 25° C. for 10 minutes while adding each of a variety of enzyme activity-inhibitory agents and each metal ion in such an amount that the final concentration thereof was equal to 1 mM and then the reaction was carried out at a temperature of 37° C. for 30 minutes using dimethylated casein and monodansylcadaverine as substrates.

[3] = tested on: dimethylated casein and monodansylcadaverine; experiment: Effect of NaCl and Ca2+ on enzyme activity; details: increasing NaCl concentration

## NC(=O)CC[C@H](NC(=O)OCc1ccccc1)C(=O)NCC(=O)O [CBZ-Gln-Gly, benzyloxycarbonyl glutaminyl glycine] (Cbz-Gln-Gly-OH)
[1]
  enzyme activity with synthetic substrate (in words): catalyzed the reaction
[1]; listed as benzyloxycarbonyl glutaminyl glycine
  enzyme activity with synthetic substrate (in words): showed the enzyme activity

## O=C(O)CI [Monoiodoacetic Acid]
[2]
  enzyme activity-inhibitory effect (in words): high enzyme activity-inhibitory effect
[2]; listed as momoiodo acetic acid
  enzyme activity-inhibitory effect (in words): inhibited

## CBZ-Gln-Gln-Gly: synthetic substrate (Cbz-Gln-Gln-Gly)
[1]
  enzyme activity with synthetic substrate (in words): catalyzed the reaction

## [Ni+2] [Ni^2+]
[2]
  Residual Activity: 67.9%

## glycyl glutamyl glycine [Gly-Gln-Gly]
[1]
  enzyme activity with synthetic substrate (in words): did not catalyze the reaction
[1]; listed as glycyl glutamyl glycine
  enzyme activity with synthetic substrate (in words): did not show any enzyme activity

## CCN1C(=O)C=CC1=O [N-Ethylmaleimide]
[2]
  enzyme activity-inhibitory effect (in words): high enzyme activity-inhibitory effect; also recorded: inhibited

## CBZ-Gly- Gly-Gln-Gly: synthetic substrate, SEQ ID NO: 143 (Cbz-GGQG)
[1]
  enzyme activity with synthetic substrate (in words): catalyzed the reaction

## [Pb+2] [Pb^2+]
[2]
  enzyme activity-inhibitory effect (in words): strongly inhibited the enzyme activity
  Residual Activity: 55.5%

## [Ba+2] [Ba^2+]
[2]
  enzyme activity-inhibitory effect (in words): almost no enzyme activity-inhibitory effect
  Residual Activity: 102%

## [Mn+2] [Mn^2+]
[2]
  Residual Activity: 84.7%

## O=S(=O)(F)Cc1ccccc1 [Phenylmethylsulfone Fluoride]
[2]
  enzyme activity-inhibitory effect (in words): almost no enzyme activity-inhibitory effect
  Residual Activity: 96.4%

## O=C(O)c1cc[c]([Hg][Cl])cc1 [p-Chloromercuribenzoic Acid]
[2]
  enzyme activity-inhibitory effect (in words): high enzyme activity-inhibitory effect; also recorded: inhibited
  Residual Activity: 10.5%

## [Cu+2] [Cu^2+]
[2]
  enzyme activity-inhibitory effect (in words): strongly inhibited the enzyme activity; also recorded: extremely high; also recorded: inhibited
  Residual Activity: 8.8%

## [Zn+2] [Zn^2+]
[2]
  Residual Activity: 65.0%

## NC(=O)C[C@H](NC(=O)OCc1ccccc1)C(=O)NCC(=O)O [CBZ-Asn-Gly, benzyloxycarbonyl asparaginyl glycine] (Cbz-Asn-Gly-OH)
[1]
  enzyme activity with synthetic substrate (in words): did not catalyze the reaction
[1]; listed as benzyloxycarbonyl asparaginyl glycine
  enzyme activity with synthetic substrate (in words): did not show any enzyme activity

## NC(=O)CC[C@H](NC(=O)OCc1ccccc1)C(=O)O [CBZ-Gln, benzyloxycarbonyl glutamine]
[1]
  enzyme activity with synthetic substrate (in words): did not catalyze the reaction
[1]; listed as benzyloxycarbonyl glutamine
  enzyme activity with synthetic substrate (in words): did not show any enzyme activity

## [Mg+2] [Mg^2+]
[2]
  enzyme activity-inhibitory effect (in words): almost no enzyme activity-inhibitory effect
  Residual Activity: 98.2%

## [Sr+2] [Sr^2+]
[2]
  enzyme activity-inhibitory effect (in words): almost no enzyme activity-inhibitory effect
  Residual Activity: 93.8%

## CCOC(=O)CNC(=O)[C@H](CCC(N)=O)NC(=O)OCc1ccccc1 [CBZ-Gln-Gly-OEt] (Cbz-Gln-Gly-OEt)
[1]
  enzyme activity with synthetic substrate (in words): catalyzed the reaction

## [Co+2] [Co^2+]
[2]
  enzyme activity-inhibitory effect (in words): strongly inhibited the enzyme activity
  Residual Activity: 54.3%

B1: transglutaminase originating from a microorganism: TGase originating from a microorganism; probably the Streptoverticillium calcium-independent BTG (protein, UniProt P81453 77-407, looked up)
Protein-glutamine …: DSDDRVTPPAEPLDRMPDPYRPSYGRAETVVNNYIRKWQQVYSHRDGRKQQMTEEQREWLSYGCVGVTWVNSGQYPTNRLAFASFDEDRFKNELKNGRPRSGETRAEFEGRVAKESFDEEKGFQRAREVASVMNRALENAHDESAYLDNLKKELANGNDALRNEDARSPFYSALRNTPSFKERNGGNHDPSRMKAVIYSKHFWSGQDRSSSADKRKYGDPDAFRPAPGTGLVDMSRDRNIPRSPTSPGEGFVNFDYGWFGAQTEADADKTVWTHGNHYHAPNGSLGAMHVYESKFRNWSEGYSDFDRGAYVITFIPKSWNTAPDKVKQGWP
[3]
  effect of NaCl concentration on enzyme activity (in words): did not show any increase
